Tested on: HEK293T cells
Experiment: Nuclear-cytoplasmic localization of dCas9-Tet1 constructs with or without gRNA
Assay type: cell-based
Settings: for induction index (nuclear-cytoplasmic ratio with sgRNA normalized to that without sgRNA): HEK293T cells
Excerpt: FIGS. 8A-8E depict a modified CRISPR system for editing 5-cytosine DNA methylation in the mammalian genome. FIG. 8A depicts design of dCas9-effector constructs with nuclear localization signal (NLS) located at different positions, and guide RNA (gRNA) or enhanced guide RNA (E-gRNA) with CMV-driven puro-T2A-Cherry cassette. Ub: human Ubiquitin C promoter. […] FIG. 8C provides comparison of the cellular localization of dCas9-NLS-Tet1 and NLS-dCas9-NLS-Tet1 in HEK293T cells with or without co-expression of a gRNA or E-gNRA targeting the same position in the MyoD locus. […] Co-expression of either gRNA or E-gRNA induced cytoplasm-to-nucleus translocation of these two proteins. Stained in green for dCas9, red for Cherry and blue for DAPI in the merged images. The red dashed lines in the first two panels indicate the cross section of the images for GFP intensity quantification. Scale bar: 10 um. FIG. 8D provides quantification of the nuclear-cytoplasmic ratio of dCas9-NLS-Tet1 and NLS-dCas9-NLS-Tet1 in HEK293T cells in the absence or presence of a gRNA, or an E-gNRA in a Box and Whiskers plot. Average dCas9 intensity of cytoplasmic and nuclear domain along a cross-sectional line as illustrated in C was used for the quantification. “+” denotes mean value of the 20 data points in each group; the boxes indicate the extreme data points (top and bottom bars), the 25-75% interval (box), and the median (central line). […] We reasoned that the combination with the highest induction index would result in the best signal-to-noise ratio for targeted DNA methylation editing.
To achieve targeted editing of DNA methylation, we fused dCas9 with enzymes in the methylation/demethylation pathway (FIG. 1A). […] Both gRNA constructs contain a puro selection cassette and a Cherry fluorescence protein cassette driven by an independent CMV promoter that allows for Fluorescence Activated Cell Sorting (FACS) of gRNA-expressing cells after lentiviral transduction (FIG. 8A). […]

Substance: dCas9-Tet1: catalytically inactive Cas9 (dCas9) fused through NLS to the Tet1 catalytic domain, SEQ ID NO: 159; lentivirally expressed with gRNAs
- induction index (nuclear-cytoplasmic ratio with sgRNA normalized to that without sgRNA) (co-expression of E-gRNA targeting the MyoD locus): 3.22 folds
- induction index (nuclear-cytoplasmic ratio with sgRNA normalized to that without sgRNA) (co-expression of gRNA targeting the MyoD locus): 3.17 folds
- cellular localization (in the absence of sgRNAs, transfected HEK293T cells): predominantly excluded from the nuclear compartment
